Measured values published in the supplement of paper PMC10307832.

How the values were obtained:
Assay in all cases: relative viability (nuclei count vs DMSO), 5 days (fraction); higher = more cells survive
RU-SKI 43 + Vorinostat = compound: CC[C@@H](C)CNCC(=O)N1CCC2=C([C@@H]1COC3=CC=CC(=C3)C)C=CS2 [RU-SKI 43] + O=C(CCCCCCC(=O)Nc1ccccc1)NO [Vorinostat] (partner 1 µM)
How it was run: (§1)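 Relative viability divides the nuclei count in treated wells by that in vehicle wells. Lung cancer cell lines were seeded in 1536-well plates, dosed by pin tool the next day, and fixed and stained after 5 days in one step with final 0.05% Triton X-100, 1% formaldehyde and 1 ug/ml Hoechst. Dosing was a single drug or a fixed anchor-drug dose plus five library-drug doses (not always all listed) in √10 steps, and values are medians of duplicate plates imaged at 4×.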

Irinotecan + Bortezomib = compound: CCc1c2c(nc3ccc(OC(=O)N4CCC(N5CCCCC5)CC4)cc13)-c1cc3c(c(=O)n1C2)COC(=O)[C@]3(O)CC [Irinotecan] + CC(C)C[C@H](NC(=O)[C@H](Cc1ccccc1)NC(=O)c1cnccn1)B(O)O [Bortezomib] (partner 0.002 µM)
How it was run: as §1

RU-SKI 43 + Luminespib = compound: CC[C@@H](C)CNCC(=O)N1CCC2=C([C@@H]1COC3=CC=CC(=C3)C)C=CS2 [RU-SKI 43] + CCNC(=O)c1noc(-c2cc(C(C)C)c(O)cc2O)c1-c1ccc(CN2CCOCC2)cc1 [Luminespib] (partner 0.01 µM)
How it was run: as §1

RU-SKI 43 + Palbociclib = compound: CC[C@@H](C)CNCC(=O)N1CCC2=C([C@@H]1COC3=CC=CC(=C3)C)C=CS2 [RU-SKI 43] + CC(=O)c1c(C)c2cnc(Nc3ccc(N4CCNCC4)cn3)nc2n(C2CCCC2)c1=O [Palbociclib] (partner 0.5 µM)
How it was run: as §1

UMC-11
relative viability (RU-SKI 43 + Vorinostat; first compound 0.1 µM): 0.386
relative viability (RU-SKI 43 + Vorinostat; first compound 0.3162 µM): 0.328
relative viability (RU-SKI 43 + Vorinostat; first compound 1 µM): 0.473
relative viability (RU-SKI 43 + Vorinostat; first compound 3.162 µM): 0.407
relative viability (RU-SKI 43 + Vorinostat; first compound 10 µM): 0.352
relative viability (Irinotecan + Bortezomib; first compound 0.6325 µM): 0.595
relative viability (Irinotecan + Bortezomib; first compound 2 µM): 0.519
relative viability (Irinotecan + Bortezomib; first compound 6.325 µM): 0.184
relative viability (Irinotecan + Bortezomib; first compound 20 µM): 0.139
relative viability (RU-SKI 43 + Luminespib; first compound 0.1 µM): 1.13
relative viability (RU-SKI 43 + Luminespib; first compound 0.3162 µM): 1.29
relative viability (RU-SKI 43 + Luminespib; first compound 1 µM): 1
relative viability (RU-SKI 43 + Luminespib; first compound 3.162 µM): 1.04
relative viability (RU-SKI 43 + Luminespib; first compound 10 µM): 1.09
relative viability (RU-SKI 43 + Palbociclib; first compound 0.1 µM): 0.317
relative viability (RU-SKI 43 + Palbociclib; first compound 0.3162 µM): 0.31
relative viability (RU-SKI 43 + Palbociclib; first compound 1 µM): 0.351
relative viability (RU-SKI 43 + Palbociclib; first compound 3.162 µM): 0.314
relative viability (RU-SKI 43 + Palbociclib; first compound 10 µM): 0.323
